The source of these data is US20160090351A1, “INHIBITORS OF DEUBIQUITINATING PROTEASES” (BRANDEIS UNIVERSITY, priority 2013, published 2016).

One data set has as its system K562 cells. The experiment in a line: apoptosis, cell cycle and viability of K562 cells by flow cytometry. Format: cell-based, human. The conditions noted are these: K562 cells. As to the method:
K562 cells are from a myelogenous leukemia line that expresses Bcr-Abl kinase. A. K562 cells were treated with TU50 for 24 hours after which time the cells were treated with annexin V-FITC and propidium iodide. Cells were then analyzed by flow cytometry. Cells showing only annexin V-FITC were considered apoptotic whereas cells showing both annexin V-FITC and propidium iodide were considered necrotic. N=2. All points show a significant difference to the vehicle (DMSO) with p<0.05. […] All points show a significant difference to vehicle (DMSO) with p<0.02. C. Same as A, but the incubation period was 8 hours. N>2. All points show a significant difference to DMSO with p<0.02. D, K562 cells were treated with TU50 for 4 hours. Samples were analyzed by SDS-PAGE and immunoblotting with anti-Bcr-Abl antibody. E. Quantitation of blot in D. The signal for tubulin was used to normalize the Bcr-Abl signal. N=3.
FIG. 40 depicts data showing that diphenyl carbonates induce the degradation of Bcr-Abl kinase. A. K562 cells were treated with C17 for 24 h (1 dose) then analyzed for Bcr-Abl expression by western blot with anti-Abl antibody. B. Quantitation of blots in A normalized to actin. C. K562 cells were treated with C17 for 24 h then the amount of cells in G1 and apoptosis were recorded (N=3). D. K562 were treated with C15 for 4 h then analyzed for Bcr-Abl expression using western blot. E. Quantitation of Bcr-Abl from D normalized to tubulin (N=4). F. Same K562 lysates were separately analyzed for K63-linked ubiquitin. G. Quantitation of blots in F (N=4). Differences between all bars is significant p<0.01). H. K562 cells were treated with C15 for 24 h after which time cells were fixed in ethanol, treated with propodium iodide/RNAse then analyzed by FACS. Viability was calculated using forward and side scatter. I. Same experiment as H but red fluorescence was measured to determine DNA content
For orientation: In flow cytometry, cells or beads pass a laser one at a time.

Another data set concerns USP9x and USP7. The experiment in a line: HA-Ub-VS activity profiling of lysates from treated HEK 293T cells, USPs. Format: cell-based, human. Conditions: 100 μM, 2 hours. On the procedure: FIG. 32 depicts data showing that diphenyl carbonates inhibit DUBs in HEK 293T cells. A. Viability of HEK 293T cells assessed by the propidium iodide exclusion method: diphenyl carbonate (100 μM), bortezomib (V, 20 μM) and G5 (2 μM). N≧3, mean+/−s.d. B. HEK 293T cells were treated with the stated compounds (50 μM) for 2 h and then assayed for the accumulation of K48-linked Ub species. C. As in A, but K63-linked Ub was assayed. D. HEK 293T cells were treated with C14, C15, C17, C18 (100 μM) or DMSO for 2 hours, then harvested, lysed and treated with HA-Ub-VS. After 30 min, lysates were analyzed by SDS-PAGE and probed for HA, tubulin and actin. An intervening lane was removed for clarity. E. HEK 293T cells expressing Ub-G76V-GFP were treated with diphenyl carbonates (100 μM), bortezomib (20 μM) and G5 (2 μM). […] N>3, Mean+/−s.d. See also FIG. 39.
Lysate labeling assay on untransfected cells (1.5 mg/mL) was run with the stated concentration of inhibitor (or 1% DMSO control) for between 19-60 mins. After this time HA-Ub-VS (1.5-0.7 μM) was added and incubated for 19 mins. After this time reaction mixture (9 μL) was removed and quenched in 2× (final concentration) reducing loading buffer. […]
Lysates from HEK 293T cells treated with diphenylcarbonates were analyzed by HA-Ub-VS activity profiling to assess the selectivity of DUB inhibition in the context of a cell.

The next data set relates to Mdm2, p53, p21/WAF1. Nature of the data set: Mdm2, p53 and p21/WAF1 levels in MCF7 cells. Conditions: for Mdm2 levels: C17 4 h, C15 6 hours dosed every 2 hours. Format: cell-based, human. As to the method:
FIG. 35 depicts data showing that diphenylcarbonates reduce the levels of Mdm2 and cause the accumulation of P53 and P21 in MCF7 cells. A. MCF7 cells were treated with C17 for 4 h and Mdm2 levels were measured. B. As in A, P53 measured. C. As in A, P21 measured. D. MCF7 and B16/F10 cells were treated with C17 every 24 hours. After 72 hours, the number of viable cells was measured by Alamar Blue®. See also FIG. 41 and FIG. 42.
C. Effect of C15 on PARP cleavage and P53 levels. […] E. Effects of C15 on Mdm2 and P21 levels. […] F. DMSO treated cells. […] C17 was dosed every 24 h. After this time, cells were analyzed by flow cytometry.
Transfected cells were harvested 1.5 days post transfection. […] Typically clarified lysate was analyzed.
The ability of diphenyl carbonates to inhibit USP7 function in cells was also assessed. The ubiquitin-ligase Mdm2 is a substrate for USP7. Mdm2 is responsible for the ubiquitination and subsequent degradation of p53. Mdm2 is over-expressed in many cancer cells, resulting in the depletion of p53. Mdm2 is itself degraded via an ubiquitin-dependent process. USP7 removes ubiquitin from Mdm2, protecting it from degradation. Like Mdm2, USP7 is over-expressed in many cancers. Inhibition of USP7 promotes the proteasome-mediated degradation of Mdm2, which causes an increase in p53 levels, as well as those of the downstream signaling protein p21/WAF1, and ultimately induces apoptosis.

The next data set concerns B16/F10 cells. Nature of the data set: proliferation and cell cycle of B16/F10 cells. It is filed as cell-based, mouse.

Molecules are shown by their SMILES.

Method for B16/F10 cells: MCF7 cells were dosed every 2 hours with the indicated concentration of C15. After 6 hours, cells were lysed by freeze thaw and then sonicated in 0.5% SDS. A. Total lysates were blotted for K48-linked ubiquitin and actin. B. Normalized K48-linked ubiquitin signal was plotted as a function of concentration of C15 (N=2). C. […] Doxorubicin (Dox) is a DNA damaging agent that serves as a positive control for the induction of P53. D. Quantitation of P53 levels in C relative to actin (N=2). […] MCF7 cells were treated under the stated conditions then analyzed for cell cycle. F. DMSO treated cells. G. Cells treated with C17 (25 μM), dosed every 24 hours. H. Cells treated with C17 (50 μM), dosed every 24 hours. […] These cells were left for 72 h (single dose) after which time the total number of viable cells was analyzed using Alamar Blue®. All data are n≧4 showing mean+/−s.e.m. K. MCF7 cells were plated with C17 for 24 hours after which time the total number of viable cells was measured by Alamar Blue®. L. B16/F10 cells were treated with DMSO, C17 or P005091 for 72 h. […] After this time, cells were analyzed by flow cytometry.
All cells were grown at 37° C. in a 5% CO2 humidified atmosphere in DMEM supplemented with 10% heat inactivated FBS, 1× glutamax, and 1× penicillin/streptomycin. […] Typically clarified lysate was analyzed. […] Lysates were centrifuged (20 000 rpm, microcentrifuge, Eppendorf 5417 C) concentration was measured, then 0.1% SDS was added and lysates were sonicated for a total of 30 s (in 10 s bursts). Protein concentration was determined using Bradford assay with IgG as standard and analyzed by western blot as delineated below {[9 μg total protein for K48-linked ubiquitin (1:9000 antibody dilution), SMAD4 (1:500) or PARP (1:1000)]; [30-40 μg was loaded for K63-linked ubiquitin (1:1500), Mdm2 (1:1000) or Abl (1:1500). […]

Take `NCc1ccc(OC(=O)Oc2ccc3ccccc3c2)cc1` [Compound C17]: the “G1 and apoptotic cells” value in the data set with K562 cells (24 h incubation) is “dose-dependent increase in G1 and apoptotic cells”. The “HA-Ub-VS labeling of USP9x and USP7 after treatment of cells” value in the data set on USP9x and USP7 is reported as “most potent compounds”. In addition, in the data set with Mdm2, p53, p21/WAF1, the p21/WAF1 levels result is listed as “robust increase in p21/WAF1 levels”, the p53 levels entry is recorded as “concomitant increase in p53” and the Mdm2 levels result is given as “Mdm2 levels decreased”. In addition, the cell cycle distribution entry in the data set on B16/F10 cells (72 h, flow cytometry) is “decrease in cells in G1 phase and an increase in G2”. Further, the proliferation result in the data set on B16/F10 cells (72 hours, dosed every 24 hours) is given as “inhibited proliferation in B16/F10 cells”. Further, in the data set with MCF7 cells, the “cytotoxicity after single dose, 72 h” value is reported as “no cytotoxicity was observed” and the “decrease of cell viability” value was determined as 50%.
As to `NCc1ccc(OC(=O)Oc2cccc3ccccc23)cc1` [Compound C18], the “HA-Ub-VS labeling of USP9x and USP7 after treatment of cells” value in the data set with USP9x and USP7 is given as “most potent compounds”.
With `NCc1ccc(OC(=O)Oc2ccc(Br)cc2)cc1` [Compound C15, 4-(aminomethyl)phenyl(4-bromophenyl)carbonate], in the data set on K562 cells (24 h, at 50 μM), the “viability, G1 and apoptotic cells” value was “decrease in viability, and increase in G1 and apoptotic cells”. In the data set with Mdm2, p53, p21/WAF1, the p21/WAF1 levels result is reported as “decreased p21/WAF1”, the p53 levels result is on record as “increased P53 levels” and the Mdm2 levels result is recorded as “decreased Mdm2”.
